Patent US7829563B2, “Aminoamides as orexin antagonists” (Hoffmann-La Roche Inc., priority 2007, dated 2010)
Counter-ions that a name gives are not always drawn.

target: T1, human orexin-2 (hOX2) receptors (Homo sapiens, UniProt O43614); test: Intracellular Ca2+ mobilization assay (FLIPR), antagonism of orexin-A; type: cell-based; details: CHO(dHFr−) cells stably expressing hOX2; orexin-A at EC80 as agonist; Kb=IC50/(1+[A]/EC50); read-out: Kb (μM) OX2R (human)
T1 construct: expressed in transfected cells
T1 sequence (O43614 1-444): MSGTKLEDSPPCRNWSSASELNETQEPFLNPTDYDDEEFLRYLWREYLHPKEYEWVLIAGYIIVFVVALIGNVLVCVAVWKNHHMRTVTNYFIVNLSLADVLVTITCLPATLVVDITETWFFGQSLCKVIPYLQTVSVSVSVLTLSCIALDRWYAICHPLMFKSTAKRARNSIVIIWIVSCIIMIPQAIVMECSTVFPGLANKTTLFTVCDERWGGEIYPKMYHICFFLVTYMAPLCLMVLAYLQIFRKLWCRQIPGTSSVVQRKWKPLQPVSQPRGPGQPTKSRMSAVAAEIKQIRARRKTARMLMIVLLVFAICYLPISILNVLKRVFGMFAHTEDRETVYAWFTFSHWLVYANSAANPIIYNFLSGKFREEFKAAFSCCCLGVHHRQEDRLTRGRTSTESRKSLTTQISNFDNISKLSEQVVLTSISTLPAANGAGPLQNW
Method in brief: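 Fluo-4-loaded CHO(dHFr−) cells stably expressing hOX2 were pre-incubated 25 min at 37° C with antagonist (11 concentrations, 0.0001-10 μM), then stimulated with orexin-A at daily-determined EC80. Peak FLIPR fluorescence was fitted to the Hill equation for IC50, and Kb was derived as IC50/(1+[A]/EC50).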

| SMILES | Kb [µM] |
| --- | --- |
| CCNC(=O)[C@H](NC(CCc1ccc(C(F)(F)F)cc1)c1ccc(OC)c(OC)c1)c1ccccc1 (single isomer, unassigned) [Example 13, (R)-2-[(R or S)-1-(3,4-Dimethoxy-phenyl)-3-(4-trifluoromethyl-phenyl)-propylamino]-N-ethyl-2-phenyl-acetamide] | 0.0026 |
| COc1ccc(C(CCc2ccc(C(F)(F)F)cc2)N[C@@H](C(=O)NCC2CC2)c2ccccc2)cc1OC (single isomer, unassigned) [Example 16, (R)-N-Cyclopropylmethyl-2-[(R or S)-1-(3,4-dimethoxy-phenyl)-3-(4-trifluoromethyl-phenyl)-propylamino]-2-phenyl-acetamide] | 0.0142 |
| CNC(=O)[C@@](C)(N[C@@H](CCc1ccc(C(F)(F)F)cc1)c1ccc(OC)c(OC)c1)c1ccccc1 (single isomer, unassigned) [Example 29] | 0.0184 |
| CNC(=O)[C@H](N[C@@H](CCc1ccc(Cl)cc1)c1ccc(OC)c(OC)c1)c1ccccc1 (single isomer, unassigned) [Example 140] | 0.0014 |
| CNC(=O)[C@H](N[C@@H](CCc1ccc(F)cc1)c1ccc(OC)c(OC)c1)c1ccccc1 (single isomer, unassigned) [Example 144] | 0.0097 |
| CNC(=O)[C@H](N[C@@H](CCc1ccccc1)c1ccc(OC)c(OC)c1)c1ccccc1 (single isomer, unassigned) [Example 314] | 0.0067 |
| CNC(=O)C(NC(CCc1ccc(C(F)(F)F)cc1)c1sc(C)nc1C)c1ccc(F)cc1 (stereo not shown) [Example 80, 2-[1-(2,4-Dimethyl-thiazol-5-yl)-3-(4-trifluoromethyl-phenyl)-propylamino]-2-(4-fluoro-phenyl)-N-methyl-acetamide] | 0.0192 |
| CNC(=O)C(NC(CCc1ccc(C(F)(F)F)cc1)c1cc(C(C)C)no1)c1ccccc1 (stereo not shown) [Example 92, 2-[1-(3-Isopropyl-isoxazol-5-yl)-3-(4-trifluoromethyl-phenyl)-propylamino]-N-methyl-2-phenyl-acetamide] | 0.007 |
| CNC(=O)C(NC(CCc1ccc(C(F)(F)F)cc1)c1sc(C)nc1C)c1ccccc1 (stereo not shown) [Example 93, 2-[1-(2,4-Dimethyl-thiazol-5-yl)-3-(4-trifluoromethyl-phenyl)-propylamino]-N-methyl-2-phenyl-acetamide] | 0.017 |
| CNC(=O)[C@H](N[C@@H](CCc1ccc(C(F)(F)F)cc1)c1ccc(OC)c(OC)c1)c1ccc(Cl)cc1 [Example 94, (R)-2-(4-Chloro-phenyl)-2-[(S)-1-(3,4-dimethoxy-phenyl)-3-(4-trifluoromethyl-phenyl)-propylamino]-N-methyl-acetamide] | 0.0051 |
| CNC(=O)[C@H](N[C@@H](CCc1ccc(C(F)(F)F)cc1)c1ccc(OC)c(OC)c1)c1ccc(F)cc1 [Example 95, (R)-2-[(S)-1-(3,4-Dimethoxy-phenyl)-3-(4-trifluoromethyl-phenyl)-propylamino]-2-(4-fluoro-phenyl)-N-methyl-acetamide] | 0.0086 |
| CNC(=O)[C@H](N[C@@H](CCc1ccc(Cl)cc1)c1ccc2c(c1)CCO2)c1ccccc1 [Example 96, (R)-2-[(S)-3-(4-Chloro-phenyl)-1-(2,3-dihydro-benzofuran-5-yl)-propylamino]-N-methyl-2-phenyl-acetamide] | 0.0018 |
| CNC(=O)[C@H](N[C@@H](CCc1ccc(Cl)cc1)c1ccc(OC)c(OC)c1Cl)c1ccccc1 [Example 98, (R)-2-[(S)-1-(2-Chloro-3,4-dimethoxy-phenyl)-3-(4-chloro-phenyl)-propylamino]-N-methyl-2-phenyl-acetamide] | 0.0014 |
| CNC(=O)[C@H](N[C@@H](CCc1ccc(C(F)(F)F)nc1)c1ccc2c(c1)CCCC2)c1ccc(F)cc1 [Example 102, (R)-2-(4-Fluoro-phenyl)-N-methyl-2-[(S)-1-(5,6,7,8-tetrahydro-naphthalen-2-yl)-3-(6-trifluoromethyl-pyridin-3-yl)-propylamino]-acetamide] | 0.0114 |
| CNC(=O)[C@H](N[C@@H](CCc1ccc(C(F)(F)F)nc1)c1cc(Cl)ccc1OC)c1ccc(F)cc1 [Example 104, (R)-2-[(S)-1-(5-Chloro-2-methoxy-phenyl)-3-(6-trifluoromethyl-pyridin-3-yl)-propylamino]-2-(4-fluoro-phenyl)-N-methyl-acetamide] | 0.0148 |
| CNC(=O)[C@H](N[C@@H](CCc1ccc(C(F)(F)F)nc1)c1cc(C)ccc1F)c1ccc(F)cc1 [Example 107, (R)-2-[(S)-1-(2-Fluoro-5-methyl-phenyl)-3-(6-trifluoromethyl-pyridin-3-yl)-propylamino]-2-(4-fluoro-phenyl)-N-methyl-acetamide] | 0.0124 |

| SMILES | Kb [µM] |
| --- | --- |
| CNC(=O)[C@H](N[C@@H](CCc1ccc(C(F)(F)F)cc1)c1ccc2c(c1)CCCO2)c1ccccc1 [Example 113, (R)-2-[(S)-1-Chroman-6-yl-3-(4-trifluoromethyl-phenyl)-propylamino]-N-methyl-2-phenyl-acetamide] | 0.0089 |
| CNC(=O)[C@H](N[C@@H](CCc1ccc(C(F)(F)F)cc1)c1ccc2c(c1)OCCN2C)c1ccccc1 [Example 115, (R)—N-Methyl-2-[(S)-1-(4-methyl-3,4-dihydro-2H-benzo[1,4]oxazin-7-yl)-3-(4-trifluoromethyl-phenyl)-propylamino]-2-phenyl-acetamide] | 0.0114 |
| CNC(=O)[C@H](N[C@@H](CCc1ccc(C(F)(F)F)cc1)c1sc(C)nc1C)c1ccc(F)cc1 [Example 116, (R)-2-[(S)-1-(2,4-Dimethyl-thiazol-5-yl)-3-(4-trifluoromethyl-phenyl)-propylamino]-2-(4-fluoro-phenyl)-N-methyl-acetamide] | 0.0061 |
| CNC(=O)[C@H](N[C@@H](CCc1ccc(C(F)(F)F)cc1)c1cc(C)ccc1F)c1ccccc1 [Example 123, (R)-2-[(S)-1-(2-Fluoro-5-methyl-phenyl)-3-(4-trifluoromethyl-phenyl)-propylamino]-N-methyl-2-phenyl-acetamide] | 0.0129 |
| CNC(=O)[C@H](N[C@@H](CCc1ccc(C(F)(F)F)cc1)c1cc(C)ccc1F)c1ccc(F)cc1 [Example 124, (R)-2-[(S)-1-(2-Fluoro-5-methyl-phenyl)-3-(4-trifluoromethyl-phenyl)-propylamino]-2-(4-fluoro-phenyl)-N-methyl-acetamide] | 0.0123 |
| CNC(=O)[C@H](N[C@@H](CCc1ccc(Cl)cc1)c1ccc(OC)c(OC)c1)c1ccccc1 [Example 163, (R)-2-[(S)-3-(4-Chloro-phenyl)-1-(3,4-dimethoxy-phenyl)-propylamino]-N-methyl-2-phenyl-acetamide] | 0.0011 |
| CNC(=O)[C@H](N[C@@H](CCc1ccc(C(F)(F)F)nc1)c1ccc(OC)c(OC)c1)c1ccccc1 [Example 200, (R)-2-[(S)-1-(3,4-Dimethoxy-phenyl)-3-(6-trifluoromethyl-pyridin-3-yl)-propylamino]-N-methyl-2-phenyl-acetamide hydrochloride] | 0.0028 |
| CNC(=O)[C@H](N[C@@H](CCc1ccc(C(F)(F)F)cc1)c1cccc(OC)c1)c1ccccc1 [Example 221, (R)-2-[(S)-1-(3-Methoxy-phenyl)-3-(4-trifluoromethyl-phenyl)-propylamino]-N-methyl-2-phenyl-acetamide hydrochloride] | 0.0026 |
| CNC(=O)[C@@H](N[C@H](CCc1ccc(C(F)(F)F)cc1)c1cccc(OC)c1)c1ccccc1 [Example 222, (S)-2-[(R)-1-(3-Methoxy-phenyl)-3-(4-trifluoromethyl-phenyl)-propylamino]-N-methyl-2-phenyl-acetamide hydrochloride] | 0.0171 |
| CNC(=O)[C@H](N[C@@H](CCc1ccc(C)nc1)c1ccc(F)c(C)c1)c1ccccc1 [Example 262, (R)-2-[(S)-1-(4-Fluoro-3-methyl-phenyl)-3-(6-methyl-pyridin-3-yl)-propylamino]-N-methyl-2-phenyl-acetamide] | 0.0173 |
| Cc1cc([C@H](CCc2ccc(C(F)(F)F)nc2)N[C@@H](C(N)=O)c2ccccc2)ccc1F [Example 353, (R)-2-[(S)-1-(4-Fluoro-3-methyl-phenyl)-3-(6-trifluoromethyl-pyridin-3-yl)-propylamino]-2-phenyl-acetamide] | 0.0057 |
| CNC(=O)[C@H](N[C@@H](CCc1ccc(C(F)(F)F)cc1)c1cccc(OC(F)F)c1)c1ccccc1 [Example 387, (R)-2-[(S)-1-(3-Difluoromethoxy-phenyl)-3-(4-trifluoromethyl-phenyl)-propylamino]-N-methyl-2-phenyl-acetamide] | 0.008 |
| CNC(=O)[C@H](N[C@@H](CCc1ccc(C(F)(F)F)cc1)c1cccc(OC(F)F)c1)c1ccc(C)cc1 [Example 389, (R)-2-[(S)-1-(3-Difluoromethoxy-phenyl)-3-(4-trifluoromethyl-phenyl)-propylamino]-N-methyl-2-p-tolyl-acetamide] | 0.0048 |
| CNC(=O)[C@H](N[C@@H](CCc1ccc(Cl)cc1)c1ccc(F)c(C)c1)c1ccccc1 [Example 392, (R)-2-[(S)-3-(4-Chloro-phenyl)-1-(4-fluoro-3-methyl-phenyl)-propylamino]-N-methyl-2-phenyl-acetamide] | 0.0059 |
| CNC(=O)[C@H](N[C@@H](CCc1ccc(C)cc1)c1ccc(F)c(C)c1)c1ccccc1 [Example 397, (R)-2-[(S)-1-(4-Fluoro-3-methyl-phenyl)-3-p-tolyl-propylamino]-N-methyl-2-phenyl-acetamide] | 0.0042 |
